One experiment deals with COLO 205. In words: Cell Titer-Glo cell viability: COLO 205. The class given is cell-based. Particulars: Homo sapiens; COLO-205, colon adenocarcinoma; 72 h. How it is done: (§1) This assay quantitates the ATP present in order to determine the number of viable cells in culture. Briefly, the compounds were incubated with the cells for 72 h, followed by cell lysis. The resulting luminescent signal is proportional to the amount of ATP present and, therefore, directly proportional to the number of cells present in culture.
(§2) Compound nos. […] These cell lines are derived from human lung carcinoma, colon adenocarcinoma, colon adenocarcinoma, colon carcinoma, acute promyelocytic leukemia, colon adenocarcinoma, colon adenocarcinoma (from metastatic site lymph node), respectively.
(§3) Compounds 2b, 5, 6b and 10a were tested along with derivatives in viability assays as described above by Caliper LifeSciences Systems (Hanover, Md.), in A549, HCT-15, HCT-116, MCF-7, MDA-MB-231, OVCAR3, T47D, COLO205, HT-29, BT-20, HCC1187, HL-60, MDA-MB-175, SW-620, and UACC812 cells.
Background: In ATP-based viability assays light output follows the ATP content of the culture.

A further experiment deals with HCT-15. In words: Cell Titer-Glo cell viability: HCT-15. Particulars: Homo sapiens, HCT-15; HCT15, colon carcinoma; 72 h. The class given is cell-based. As to the method:
as §1, §2, §3

Another experiment relates to HCC 1187. In words: Cell Titer-Glo cell viability: HCC 1187. The class given is cell-based. The settings on record: Homo sapiens; HCC1187, breast cancer; 72 h. As to the method:
(§4) Compound nos. […] This panel of cell lines includes an ER− breast carcinoma, primary breast ductal carcinoma, prostate adenocarcinoma, mammary adenocarcinoma, mammary ductal carcinoma, mammary ductal carcinoma, ovary adenocarcinoma, ER+ breast carcinoma, ER-HER2+ mammary ductal carcinoma and an ER+ mammary ductal carcinoma, respectively.
as §1, §3

The subject of experiment [1] is Akt phosphorylation induced by IGF-1R in HT-29 cells. In words: Western blot analysis of Akt phosphorylation induced by IGF-1R. The class given is cell-based, Human. The settings on record: then IGF-1 10 ng/mL 10 min, HT-29.
The subject of another experiment is BT-20. In words: Cell Titer-Glo cell viability: BT-20. Particulars: Homo sapiens, BT-20; BT20, breast cancer; 72 h. The class given is cell-based. How it is done:
as §4, §1, §3

A further experiment relates to LNCaP. Put plainly: Cell Titer-Glo cell viability: LNCaP. The settings on record: Homo sapiens, prostate cancer, 72 h. The class given is cell-based. How it is done: as §4, §1
The test system of a further experiment is MCF-7. In words: Cell Titer-Glo cell viability: MCF-7. The class given is cell-based. The settings on record: Homo sapiens; MCF7, breast cancer; 72 h. As to the method:
as §4, §1, §3

Another experiment relates to SW-620. In words: Cell Titer-Glo cell viability: SW-620. The settings on record: Homo sapiens; SW-620, metastatic colorectal cancer; 72 h. The class given is cell-based. How it is done:
as §1, §2, §3

The next experiment relates to HT-29. Put plainly: Cell Titer-Glo cell viability: HT-29. The settings on record: Homo sapiens, HT-29, 72 h, 72 h. The class given is cell-based. As to the method: as §1, §2, §3
A further experiment concerns HL-60. Put plainly: Cell Titer-Glo cell viability: HL-60. The class given is cell-based, human. The settings on record: 72 h. As to the method:
as §1, §2, §3

Another experiment has as its system ZR-75-1. Put plainly: Cell Titer-Glo cell viability: ZR-75-1. The class given is cell-based. The settings on record: Homo sapiens; ZR-75-1, breast cancer; 72 h. As to the method:
as §4, §1

A further experiment has as its system A549. In words: Cell Titer-Glo cell viability: A549. The class given is cell-based. The settings on record: Homo sapiens; A549, non-small lung carcinoma; 72 h. As to the method: as §1, §2, §3
For the next experiment, the system named is T47D. Put plainly: Cell Titer-Glo cell viability: T47D. The class given is cell-based. Particulars: Homo sapiens, breast cancer, 72 h. How it is done:
as §4, §1, §3

For the next experiment, the system named is OVCAR-3. Put plainly: Cell Titer-Glo cell viability: OVCAR-3. Particulars: Homo sapiens, OVCAR3, ovarian cancer, 72 h. The class given is cell-based. How it is done: as §4, §1, §3
A further experiment concerns HCT-116. Put plainly: Cell Titer-Glo cell viability: HCT-116. The class given is cell-based. Particulars: Homo sapiens, HCT116, colon carcinoma, 72 h. As to the method:
as §1, §2, §3

The test system of a further experiment is UACC 812. Put plainly: Cell Titer-Glo cell viability: UACC 812. The class given is cell-based. The settings on record: Homo sapiens, UACC-812; UACC812, breast cancer; 72 h. How it is done: as §4, §1, §3
The inhibitory effects of Compound 8a were tested in two cell lines.

Some results are limits rather than exact numbers.

We go through one compound from patent US9422267B2, “Fused pyrimidine compounds and use thereof” (Medivation Technologies, Inc., priority 2012, dated 2016).

Usually IC50 stands for the concentration that inhibits the measured activity by half. Higher therefore signals weaker potency. As to `C[C@@]1(C(=O)Nc2ccc(F)nc2)CCCN1c1nc(Nc2cc(C3CC3)n[nH]2)c2cccn2n1` [BMS-754807, (S)-1-(4-(5-cyclopropyl-1H-pyrazol-3-ylamino)pyrrolo[1,2-f][1,2,4]triazin-2-yl)-N-(6-fluoropyridin-3-yl)-2-methylpyrrolidine-2-carboxamide, reference compound], the concentration for half-maximal inhibition (IC50) with COLO 205 is below 1 µM; in the experiment on HCT-15, below 100 µM; in the experiment with HCC 1187, below 10 µM; with BT-20, below 100 µM; with LNCaP, below 10 µM; in the experiment with MCF-7, 0.1 µM. Moreover, the IC50 with SW-620 is 1 µM; with HT-29 (HT29, colon adenocarcinoma (second entry of the table)), below 1 µM; with HT-29 (HT-29, colon cancer), below 10 µM; in the experiment with HL-60 (HL-60, promyelocytic leukemia), below 10 µM; with HL-60 (Homo sapiens, HL-60, HL60, promyelocytic leukemia (second entry of the table)) it was below 10 µM; in the experiment on ZR-75-1, above 100 µM. Moreover, the IC50 in the experiment with A549 was below 10 µM; in the experiment with T47D, below 10 µM; with OVCAR-3 it was below 10 µM; with HCT-116, 10 µM; in the experiment with UACC 812, below 100 µM. Moreover, the “phosphorylated AKT levels normalized to actin levels (pAKT/actin)” value in experiment [1] (10 nM compound 2 h) amounted to 0.09; in experiment [1] (100 nM compound 2 h) it was 0.02.
